ChEMBL document CHEMBL4613295, “Pyrrolyl Pyrazoles as Non-Diketo Acid Inhibitors of the HIV-1 Ribonuclease H Function of Reverse Transcriptase” (ACS Med Chem Lett, 2020)
Active and inactive are the calls of the source. No cut-off for these calls is given here.

Legend:
[1] = biological target: T1, Human immunodeficiency virus type 1 reverse transcriptase (Human immunodeficiency virus 1, UniProt Q72547); assay: Inhibition of RNase H activity of recombinant His-tagged HIV-1 group M subtype B reverse transcriptase p66/p51 expressed in Escherichia coli M15 using 18-nucleotide 3'-fluorescein-labeled RNA/5'-dabcyl-labeled DNA hybrid as substrate incubated for 1 hr; set-up: species or system HIV-1 M:B
[2] = system: Human immunodeficiency virus 1; assay: Antiviral activity against HIV1 infected in human HeLa-CD4-LTR-betagal cells assessed as inhibition of viral replication measured after 24 hrs by fluorescence based analysis; assay type: functional, organism-based; details: Human immunodeficiency virus 1, 24 h
[3] = Cytotoxicity against human HeLa cells expressing CD4-LTR-beta-gal assessed as reduction in cell viability measured after 24 hrs by CellTiter96 AQueous one solution cell proliferation assay; assay type: cell-based
[4] = system: Human immunodeficiency virus 1; assay: Selectivity index, ratio of IC50 for wild type HIV1 subtype B NL4-3 6xHis-tagged integrase expressed in Escherichia coli BL21 (DE3) using DNA as substrate preincubated with enzyme for 1 hr followed by addition of recombinant 6xHis-tagged LEDGF/p75 expressed in Escherichia coli BL21 (DE3), DNA donor …
[5] = Selectivity index, ratio of CC50 for human HeLa cells expressing CD4-LTR-beta-gal assessed as reduction in cell viability measured after 24 hrs by CellTiter96 AQueous one solution cell proliferation assay to EC50 for HIV1 infected in human HeLa-CD4-LTR-betagal cells measured after 24 hrs by fluorescence based analysis; assay type: toxicity; details: read-out: Ratio CC50/EC50
HIV-1 M:B [6] = assay: Selectivity index, ratio of IC50 for recombinat HIV-1 group M subtype B His-tagged reverse transcriptase p66 N474A mutant expressed in Escherichia coli M15 to IC50 for RNase H activity of recombinant His-tagged HIV-1 group M subtype B reverse transcriptase p66/p51 expressed in Escherichia coli M15 …
HIV-1 M:B [7] = assay: Selectivity index, ratio of IC50 for recombinat HIV-1 group M subtype B His-tagged reverse transcriptase p66 Q475A mutant expressed in Escherichia coli M15 to IC50 for RNase H activity of recombinant His-tagged HIV-1 group M subtype B reverse transcriptase p66/p51 expressed in Escherichia coli M15 …
HIV-1 M:B [8] = assay: Selectivity index, ratio of IC50 for recombinat HIV-1 group M subtype B His-tagged reverse transcriptase p66 Y501A mutant expressed in Escherichia coli M15 to IC50 for RNase H activity of recombinant His-tagged HIV-1 group M subtype B reverse transcriptase p66/p51 expressed in Escherichia coli M15 …
HIV-1 M:B [9] = assay: Selectivity index, ratio of IC50 for recombinat HIV-1 group M subtype B His-tagged reverse transcriptase p66 W535A mutant expressed in Escherichia coli M15 to IC50 for RNase H activity of recombinant His-tagged HIV-1 group M subtype B reverse transcriptase p66/p51 expressed in Escherichia coli M15 …
[10] = system: Human immunodeficiency virus type 1 reverse transcriptase (Human immunodeficiency virus 1), Q72547 [K540A]; assay: Inhibition of recombinat HIV-1 group M subtype B His-tagged reverse transcriptase p66 K540A mutant expressed in Escherichia coli M15; details: HIV-1 M:B
[11] = system: Human immunodeficiency virus type 1 reverse transcriptase (Human immunodeficiency virus 1), Q72547 [R448A]; assay: Inhibition of recombinat HIV-1 group M subtype B His-tagged reverse transcriptase p66 R448A mutant expressed in Escherichia coli M15; details: HIV-1 M:B
[12] = system: Human immunodeficiency virus type 1 reverse transcriptase (Human immunodeficiency virus 1), Q72547 [K451A]; assay: Inhibition of recombinat HIV-1 group M subtype B His-tagged reverse transcriptase p66 K451A mutant expressed in Escherichia coli M15; details: HIV-1 M:B
[13] = Drug metabolism in 90% human serum assessed as retro-Claisen adduct derived 1-(1-(4-fluorobenzyl)-4-phenyl-1H-pyrrol-3-yl)ethanone metabolite formation at 5 mM and 37 degree C measured after 3 hrs by ESI-RP-HPLC analysis; assay type: ADME, cell-free; details: 5000 µM
[14] = Stability of compound in 90% human serum at 5 mM and 37 degree C measured after 3 hrs by ESI-RP-HPLC analysis; assay type: ADME, cell-free; details: 5000 µM
[15] = biological target: T1, Human immunodeficiency virus type 1 reverse transcriptase; assay: Inhibition of RNase H activity of recombinant HIV-1 reverse transcriptase p66/p51 expressed in Escherichia coli M15 using 5'-[gamma32P]ATP-labeled-tC5U RNA oligonucleotide/p12 DNA oligonucleotide hybrid as substrate incubated for 30 mins
[16] = biological target: Human immunodeficiency virus type 1 integrase (Human immunodeficiency virus 1, UniProt Q7ZJM1); assay: Inhibition of wild type HIV1 subtype B NL4-3 6xHis-tagged integrase expressed in Escherichia coli BL21 (DE3) assessed as inhibition of 3'-processing and strand-transfer reactions using DNA as substrate preincubated with enzyme for 1 hr followed by addition of recombinant 6xHis-tagged LEDGF/p75 expressed in Escherichia coli BL21 (DE3), DNA donor substrate and DNA acceptor substrate and further …
Human immunodeficiency virus type 1 integrase, sequence (Q7ZJM1 whole entry): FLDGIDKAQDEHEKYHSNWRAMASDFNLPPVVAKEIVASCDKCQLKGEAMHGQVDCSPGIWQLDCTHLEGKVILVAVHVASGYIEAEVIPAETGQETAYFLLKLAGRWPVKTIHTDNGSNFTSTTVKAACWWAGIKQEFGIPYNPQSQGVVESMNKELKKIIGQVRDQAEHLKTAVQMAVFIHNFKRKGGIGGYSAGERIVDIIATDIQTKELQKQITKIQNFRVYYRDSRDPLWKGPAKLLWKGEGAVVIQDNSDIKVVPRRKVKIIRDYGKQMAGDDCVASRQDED

CCOC(=O)c1cc(-c2cn(Cc3cccc4ccccc34)cc2-c2ccc(OCC(=O)Nc3ccccc3)cc2)n[nH]1
IC50 [1]: 7.9 µM

O=C(O)c1cc(-c2cn(Cc3cccc4ccccc34)cc2-c2ccc(OCc3cccc4ccccc34)cc2)n[nH]1
IC50 [1]: 1.73 µM

CCOC(=O)c1cc(-c2cn(Cc3cccc4ccccc34)cc2-c2ccccc2)n[nH]1
IC50 [1]: 9.4 µM

CCOC(=O)c1cc(-c2cn(Cc3ccc(F)cc3)cc2-c2ccc(OCCCCCc3ccccc3)cc2)n[nH]1
IC50 [1]: 25.8 µM

O=C(O)c1cc(-c2cn(Cc3cccc4ccccc34)cc2-c2ccccc2)n[nH]1
IC50 [1]: 25.3 µM

O=C(O)c1cc(-c2cn(Cc3cccc4ccccc34)cc2-c2ccc(OCCCCc3ccccc3)cc2)n[nH]1
IC50 [1]: 2.38 µM

Cn1cc(-c2ccccc2)c(-c2cc(C(=O)O)[nH]n2)c1
IC50 [1]: > 100 µM

O=C(O)c1cc(-c2c[nH]cc2-c2ccccc2)n[nH]1
IC50 [1]: > 100 µM

CCOC(=O)c1cc(-c2ccccc2)[nH]n1
IC50 [1]: > 100 µM

CCOC(=O)c1cc(-c2cn(Cc3ccc(F)cc3)cc2-c2ccc(OCCCCc3ccccc3)cc2)n[nH]1
IC50 [1]: 17.8 µM | EC50 [2]: 4 to 41 µM | CC50 at 24 h [3]: > 200 µM | Ratio IC50 [4]: > 5.6 | selectivity ratio at 24 h [5]: > 10 | Ratio IC50 (HIV-1 M:B [6]): > 5 | Ratio IC50 (HIV-1 M:B [7]): > 5 | Ratio IC50 (HIV-1 M:B [8]): > 5 | Ratio IC50 (HIV-1 M:B [9]): > 5 | inhibition [10]: inactive | inhibition [11]: inactive | inhibition [12]: inactive

CCOC(=O)c1cc(-c2cn(Cc3ccc(F)cc3)cc2-c2ccc(OCC(=O)Nc3ccccc3)cc2)n[nH]1
IC50 [1]: 6.8 µM

CCOC(=O)c1cc(-c2cn(Cc3cccc4ccccc34)cc2-c2ccc(OCCCCc3ccccc3)cc2)n[nH]1
IC50 [1]: 8.5 µM

O=C(O)/C(O)=C/C(=O)c1cn(Cc2ccc(F)cc2)cc1-c1ccccc1
Drug metabolism [13]: Metabolite_Detected | Stability [14]: Unstable

O=C(O)c1cc(-c2cn(Cc3ccc(F)cc3)cc2-c2ccc(OCCCCc3ccccc3)cc2)n[nH]1
IC50 [1]: 0.27 µM

CCOC(=O)c1cc(-c2cn(Cc3ccc(F)cc3)cc2-c2ccc(OCc3cccc4ccccc34)cc2)n[nH]1
IC50 [1]: 5.5 µM

O=C(O)c1cc(-c2cn(Cc3ccc(F)cc3)cc2-c2ccc(OCc3ccccc3)cc2)n[nH]1
IC50 [1]: 3.21 µM

CCOC(=O)c1cc(-c2ccn(Cc3ccc(F)cc3)c2)n[nH]1
IC50 [1]: > 100 µM

CCOC(=O)c1cc(-c2cn(Cc3ccc(F)cc3)cc2-c2ccc(OCC(=O)Nc3ccc(C(=O)O)cc3)cc2)n[nH]1
IC50 [1]: 8.1 µM

CCOC(=O)/C(O)=C/C(=O)/C=C/c1cccn1Cc1ccccc1Cl
Ratio IC50 (HIV-1 M:B [6]): > 5 | Ratio IC50 (HIV-1 M:B [7]): > 5 | Ratio IC50 (HIV-1 M:B [8]): > 5 | Ratio IC50 (HIV-1 M:B [9]): > 5 | inhibition [10]: Active | IC50 [15]: 7.3 µM

CCOC(=O)c1cc(-c2cc[nH]c2)n[nH]1
IC50 [1]: > 100 µM

O=C(O)c1cc(-c2cn(Cc3ccc(F)cc3)cc2-c2ccccc2)n[nH]1
IC50 [1]: 75 µM | Stability [14]: Stable

CCOC(=O)c1cc(-c2cn(Cc3ccc(F)cc3)cc2-c2ccc(OCc3ccccc3)cc2)n[nH]1
IC50 [1]: 5.4 µM | EC50 [2]: 4 to 41 µM | Ratio IC50 [4]: > 18.5 | Ratio IC50 (HIV-1 M:B [6]): > 5 | Ratio IC50 (HIV-1 M:B [7]): > 5 | Ratio IC50 (HIV-1 M:B [8]): > 5 | Ratio IC50 (HIV-1 M:B [9]): > 5 | inhibition [10]: inactive | inhibition [11]: inactive | inhibition [12]: inactive

CCOC(=O)c1cc(-c2ccccc2-c2ccccc2)n[nH]1
IC50 [1]: > 100 µM

CCOC(=O)c1cc(-c2cn(CCCCc3ccccc3)cc2-c2ccccc2)n[nH]1
IC50 [1]: 97 µM

CCOC(=O)c1cc(-c2cn(Cc3ccc(F)cc3)cc2-c2ccc3ccccc3c2)n[nH]1
IC50 [1]: 9.4 µM | EC50 [2]: 4 to 41 µM | CC50 at 24 h [3]: > 200 µM | Ratio IC50 [4]: > 10.6 | selectivity ratio at 24 h [5]: > 10 | Ratio IC50 (HIV-1 M:B [6]): > 5 | Ratio IC50 (HIV-1 M:B [7]): > 5 | Ratio IC50 (HIV-1 M:B [8]): > 5 | Ratio IC50 (HIV-1 M:B [9]): > 5 | inhibition [10]: inactive | inhibition [11]: inactive | inhibition [12]: inactive

O=C(O)c1cc(-c2cn(CCCCc3ccccc3)cc2-c2ccccc2)n[nH]1
IC50 [1]: 63 µM

O=C(O)c1cc(-c2cn(Cc3ccc(F)cc3)cc2-c2ccc3ccccc3c2)n[nH]1
IC50 [1]: 13.7 µM

CCOC(=O)c1cc(-c2cn(Cc3cccc4ccccc34)cc2-c2ccc(OCc3cccc4ccccc34)cc2)n[nH]1
IC50 [1]: 4.15 µM

Cc1cc(C(=O)O)n[nH]1
IC50 [1]: > 100 µM

O=C(O)c1cc(-c2cn(Cc3ccc(F)cc3)cc2-c2ccc(OCc3cccc4ccccc34)cc2)n[nH]1
IC50 [1]: 4.5 µM

O=C(O)c1cc(-c2ccccc2)n[nH]1
IC50 [1]: > 100 µM

CCOC(=O)c1cc(C)n[nH]1
IC50 [1]: > 100 µM

O=C(O)c1cc(-c2ccccc2-c2ccccc2)n[nH]1
IC50 [1]: > 100 µM

CCOC(=O)c1cc(-c2cn(C)cc2-c2ccccc2)n[nH]1
IC50 [1]: > 100 µM

CCOC(=O)/C(O)=C/C(=O)c1cn(Cc2ccc(F)cc2)cc1-c1ccccc1
Drug metabolism [13]: Metabolite_Detected | Stability [14]: Unstable

CCOC(=O)c1cc(-c2c[nH]cc2-c2ccccc2)n[nH]1
IC50 [1]: > 100 µM

CCOC(=O)c1cc(-c2cn(Cc3ccc(F)cc3)cc2-c2ccccc2)n[nH]1
IC50 [1]: 14.3 µM | EC50 [2]: 4 µM | IC50 [16]: 75 µM | Ratio IC50 [4]: 5 | Ratio IC50 (HIV-1 M:B [6]): > 5 | Ratio IC50 (HIV-1 M:B [7]): > 5 | Ratio IC50 (HIV-1 M:B [8]): > 5 | Ratio IC50 (HIV-1 M:B [9]): > 5 | inhibition [10]: inactive | inhibition [11]: inactive | inhibition [12]: Active | Stability [14]: Stable

O=C(O)c1cc(-c2ccn(Cc3ccc(F)cc3)c2)n[nH]1
IC50 [1]: > 100 µM

O=C(COc1ccc(-c2cn(Cc3ccc(F)cc3)cc2-c2cc(C(=O)O)[nH]n2)cc1)Nc1ccccc1
IC50 [1]: 23 µM

O=C(COc1ccc(-c2cn(Cc3cccc4ccccc34)cc2-c2cc(C(=O)O)[nH]n2)cc1)Nc1ccccc1
IC50 [1]: 5.8 µM

O=C(COc1ccc(-c2cn(Cc3ccc(F)cc3)cc2-c2cc(C(=O)O)[nH]n2)cc1)Nc1ccc(C(=O)O)cc1
IC50 [1]: 70 µM

O=C(O)c1cc(-c2cc[nH]c2)n[nH]1
IC50 [1]: > 100 µM

O=C(O)c1cc(-c2cn(Cc3ccc(F)cc3)cc2-c2ccc(OCCCCCc3ccccc3)cc2)n[nH]1
IC50 [1]: 9.2 µM
